Measured values taken from PubChem BioAssay (NCI).
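Grown in 96-well plates, cells were treated for 48 hours with each compound at five concentrations. Insufficient inhibition: endpoint recorded as highest concentration tested. TGI: total growth inhibition.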 *1 amine or outer side, *2 acyl side, *3 side chain or, on linkers, in order; H or OH if unused. Where a SMILES comes first, the peptide text is derived from it. [ ]: non-standard residue; d: D form. ξ: configuration not given here. Ile(3ξ) = CCC(C)[C@H](N)C(=O)O; X33 = C=CCC(O[*:1])C(=O)[*:2]; NMeV = CN[C@H](C(=O)O)C(C)C; NMeA = CN[C@@H](C)C(=O)O; βAla = NCCC(=O)O

Key:
Assay in all cases: NCI-60 cell line screen, 48 h
[1] = tested on: KM12 colon
[2] = tested on: U251 CNS
[3] = tested on: HCC-2998 colon
[4] = tested on: OVCAR-4 ovarian
[5] = tested on: CCRF-CEM leukemia
[6] = tested on: OVCAR-5 ovarian
[7] = tested on: SK-OV-3 ovarian
[8] = tested on: SF-268 CNS
[9] = tested on: COLO 205 colon
[10] = tested on: DMS 273 small cell lung
[11] = tested on: SNB-75 CNS
[12] = tested on: RPMI-8226 leukemia
[13] = tested on: LOX IMVI melanoma
[14] = tested on: HCT-15 colon
[15] = tested on: TK-10 renal
[16] = tested on: SN12C renal
[17] = tested on: KM20L2 colon
[18] = tested on: ACHN renal
[19] = tested on: A549 NSCLC
[20] = tested on: SK-MEL-2 melanoma
[21] = tested on: MALME-3M melanoma
[22] = tested on: HL-60(TB) leukemia
[23] = tested on: HT29 colon
[24] = tested on: UO-31 renal
[25] = tested on: NCI-H23 lung
[26] = tested on: OVCAR-3 ovarian
[27] = tested on: SW-620 colon
[28] = tested on: 786-0 renal
[29] = tested on: NCI-H460 lung
[30] = tested on: M19-MEL melanoma
[31] = tested on: SF-295 CNS
[32] = tested on: NCI-H226 lung
[33] = tested on: HCT-116 colon
[34] = tested on: IGROV1 ovarian
[35] = tested on: HOP-92 NSCLC
[36] = tested on: LXFL 529 NSCLC
[37] = tested on: EKVX NSCLC
[38] = tested on: M14 melanoma
[39] = tested on: SNB-19 CNS
[40] = tested on: SR leukemia
[41] = tested on: OVCAR-8 ovarian
[42] = tested on: SNB-78 CNS
[43] = tested on: MOLT-4 leukemia
[44] = tested on: K-562 leukemia
[45] = tested on: SK-MEL-5 melanoma
[46] = tested on: SF-539 CNS
[47] = tested on: HOP-62 NSCLC
[48] = tested on: A498 renal
[49] = tested on: UACC-62 melanoma
[50] = tested on: CAKI-1 renal
[51] = tested on: DMS 114 small cell lung
[52] = tested on: XF 498 CNS
[53] = tested on: SK-MEL-28 melanoma
[54] = tested on: RXF 393 renal
[55] = tested on: RXF-631 renal
[56] = tested on: UACC-257 melanoma
[57] = tested on: DLD-1 colon
[58] = tested on: NCI-H522 lung
[59] = tested on: HOP-18 NSCLC

Work on `C=CCC1OC(=O)CCNC(=O)[C@H](C)N(C)C(=O)[C@H](C(C)C)N(C)C(=O)[C@H](C(C)CC)NC(=O)[C@@H]2CCCN2C1=O` (some centres not stated) (cyclo([Ile(3ξ)][NMeV][NMeA][βAla][X33]P)) yielded a TGI [1] greater than 100 µM, a TGI [2] greater than 100 µM and a TGI [3] of 27.7 µM. It also gave a TGI [4] greater than 100 µM, a TGI [5] greater than 100 µM and a TGI [6] greater than 100 µM. For the same compound, the TGI [7] was greater than 100 µM, the TGI [8] was 58.4 µM and the TGI [9] was greater than 100 µM. The TGI [10] was 28.9 µM, the TGI [11] was greater than 90.5 µM and the TGI [12] was greater than 100 µM. It also gave a TGI [13] greater than 31.7 µM, a TGI [14] greater than 100 µM and a TGI [15] greater than 100 µM. The TGI [16] was greater than 100 µM, the TGI [17] was greater than 52 µM and the TGI [18] was greater than 100 µM. It also gave a TGI [19] greater than 100 µM, a TGI [20] of 12.6 µM and a TGI [21] of 16.5 µM. It also gave a TGI [22] greater than 100 µM, a TGI [23] greater than 100 µM and a TGI [24] of 99.6 µM. It also gave a TGI [25] greater than 100 µM, a TGI [26] greater than 100 µM and a TGI [27] greater than 100 µM. For the same compound, the TGI [28] was greater than 100 µM, the TGI [29] was greater than 100 µM and the TGI [30] was greater than 67.6 µM. The TGI [31] was greater than 100 µM, the TGI [32] was 29.2 µM and the TGI [33] was greater than 100 µM. The TGI [34] was greater than 100 µM, the TGI [35] was greater than 30.9 µM and the TGI [36] was greater than 100 µM. The TGI [37] was greater than 100 µM, the TGI [38] was 7.87 µM and the TGI [39] was greater than 100 µM. For the same compound, the TGI [40] was greater than 100 µM, the TGI [41] was greater than 100 µM and the TGI [42] was greater than 100 µM. It also gave a TGI [43] greater than 100 µM, a TGI [44] greater than 71.6 µM and a TGI [45] of 10.4 µM. The TGI [46] was greater than 79.4 µM, the TGI [47] was greater than 21 µM and the TGI [48] was greater than 100 µM. The TGI [49] was greater than 46.2 µM, the TGI [50] was greater than 78.6 µM and the TGI [51] was greater than 100 µM. For the same compound, the TGI [52] was 41.8 µM, the TGI [53] was greater than 100 µM and the TGI [54] was greater than 100 µM. The TGI [55] was greater than 100 µM, the TGI [56] was 36.3 µM and the TGI [57] was greater than 100 µM.
In the case of `COC(=O)C1Cc2c([nH]c3ccccc23)C(C2CCCCC2)N1` (configuration not stated), the TGI [1] is reported as greater than 100 µM, the TGI [2] is reported as greater than 100 µM and the TGI [58] is reported as greater than 100 µM. It also gave a TGI [3] greater than 100 µM, a TGI [4] greater than 100 µM and a TGI [5] greater than 100 µM. It also gave a TGI [6] greater than 100 µM, a TGI [7] greater than 100 µM and a TGI [59] greater than 100 µM. It also gave a TGI [8] greater than 100 µM, a TGI [9] greater than 100 µM and a TGI [10] greater than 100 µM. For the same compound, the TGI [11] was greater than 100 µM, the TGI [13] was greater than 100 µM and the TGI [14] was greater than 100 µM. It also gave a TGI [15] greater than 100 µM, a TGI [16] greater than 100 µM and a TGI [17] greater than 100 µM. It also gave a TGI [18] greater than 100 µM, a TGI [19] greater than 100 µM and a TGI [20] greater than 100 µM. For the same compound, the TGI [21] was greater than 100 µM, the TGI [22] was greater than 100 µM and the TGI [23] was greater than 100 µM. The TGI [24] was greater than 100 µM, the TGI [25] was greater than 100 µM and the TGI [26] was greater than 100 µM. The TGI [27] was greater than 100 µM, the TGI [28] was greater than 100 µM and the TGI [29] was greater than 100 µM. It also gave a TGI [30] greater than 100 µM, a TGI [31] greater than 100 µM and a TGI [32] greater than 100 µM. For the same compound, the TGI [33] was greater than 100 µM, the TGI [34] was greater than 100 µM and the TGI [35] was greater than 100 µM. The TGI [36] was greater than 100 µM, the TGI [37] was greater than 100 µM and the TGI [38] was greater than 100 µM. The TGI [39] was greater than 100 µM, the TGI [40] was greater than 100 µM and the TGI [41] was greater than 100 µM. The TGI [43] was greater than 100 µM, the TGI [44] was greater than 100 µM and the TGI [45] was greater than 100 µM. The TGI [46] was greater than 100 µM, the TGI [49] was greater than 100 µM and the TGI [50] was greater than 100 µM. The TGI [51] was greater than 100 µM, the TGI [53] was greater than 100 µM and the TGI [55] was greater than 100 µM. It also gave a TGI [56] greater than 100 µM and a TGI [57] greater than 100 µM.
In the case of `COc1ccc(C(=C[N+](=O)[O-])c2ccc(OC)cc2)cc1`, the TGI [1] is reported as greater than 46.5 µM, the TGI [2] is reported as 17.9 µM and the TGI [58] is reported as 32.7 µM. The TGI [3] was 31.5 µM, the TGI [4] was greater than 100 µM and the TGI [5] was greater than 92.7 µM. The TGI [6] was 99.5 µM, the TGI [7] was 36.2 µM and the TGI [59] was greater than 100 µM. It also gave a TGI [8] greater than 100 µM, a TGI [9] of 15.5 µM and a TGI [10] of 22.9 µM. It also gave a TGI [11] of 30.3 µM, a TGI [12] of 26.3 µM and a TGI [13] of 46.4 µM. The TGI [14] was greater than 100 µM, the TGI [15] was 99.3 µM and the TGI [16] was greater than 100 µM. It also gave a TGI [17] of 26.9 µM, a TGI [18] greater than 100 µM and a TGI [19] greater than 100 µM. For the same compound, the TGI [20] was 33.3 µM, the TGI [21] was greater than 100 µM and the TGI [22] was greater than 34.7 µM. It also gave a TGI [23] of 20.1 µM, a TGI [24] of 88.9 µM and a TGI [25] greater than 57.1 µM. For the same compound, the TGI [26] was 46.1 µM, the TGI [27] was greater than 73.3 µM and the TGI [28] was greater than 89 µM. The TGI [29] was 54.7 µM, the TGI [31] was 25.1 µM and the TGI [32] was 52.4 µM. The TGI [33] was 27.8 µM, the TGI [34] was greater than 63.3 µM and the TGI [35] was greater than 100 µM. For the same compound, the TGI [36] was greater than 100 µM, the TGI [37] was greater than 100 µM and the TGI [38] was 41.8 µM. It also gave a TGI [39] greater than 94.4 µM, a TGI [40] of 45.1 µM and a TGI [41] of 37.9 µM. For the same compound, the TGI [42] was greater than 84.5 µM, the TGI [43] was 29.3 µM and the TGI [44] was greater than 100 µM. For the same compound, the TGI [45] was greater than 100 µM, the TGI [46] was 29.3 µM and the TGI [47] was 50.6 µM. The TGI [48] was 41.3 µM, the TGI [49] was greater than 100 µM and the TGI [50] was greater than 100 µM. For the same compound, the TGI [51] was 23.7 µM, the TGI [53] was greater than 100 µM and the TGI [54] was 49.1 µM. For the same compound, the TGI [55] was greater than 100 µM, the TGI [56] was greater than 92.6 µM and the TGI [57] was greater than 84.3 µM.
